# Results reported in patent publication US20030114445A1, “N3-substituted 6-anilinopyrimidines and methods to treat-Gram-positive bacterial and mycoplasmal infections” (priority 2001, published 2003).
# Like-named read-outs stand apart in the source and are kept apart here.
# How the values were obtained:
# B.subtilis pol IIIC = B.subtilis pol IIIC (Bacillus subtilis, UniProt P13267); assay: biochemical
# Protocol: DNA pol activity was assayed as described in Barnes et al., Nuc. Acids Res., 6:1203-19 (1979), using activated “nicked” calf-thymus DNA as template primer, 10 pM [^3H-methyl]-dTTP as the labelled dNTP substrate, and dATP, dCTP, and dGTP at 25 μM each.
# Inhibitory activity of the compounds is determined by measuring the ability of the agent to inhibit enzyme-catalyzed incorporation of [^3H]-dTMP into nicked calf thymus DNA in the absence of the competitor dGTP or dATP (“truncated assay”) (see G. E. Wright and N. C. Brown, Inhibition of Bacillus subtilis DNA Polymerase III by Arylhydrazinopyrimidines: Novel Properties of 2-Thiouracil Derivatives, Biochim. Biophys. Acta 432:37-48 (1976)). Purified pol IIIC is added to a buffered solution containing Mg^2+, DTT, glycerol, nicked calf thymus DNA, saturating concentrations of dATP, dCTP, dTTP and [^3H]-dTTP. Reaction mixtures are incubated at 30° C. for 10 minutes, quenched and filtered, and radioactivity in the acid-insoluble material measured by scintillation counting. Experiments are done in triplicate. Inhibitors are assayed by addition of several dilutions of a stock solution of inhibitor (DMSO or water, depending on solubility) before enzyme addition. […] The truncated assay, i.e. exclusion of the competitive substrate dGTP or dATP, depending upon whether the compound is a uracil derivative or an isocytosine derivative, respectively, allows for the direct determination of apparent inhibitor constants (K,) in this assay system.
# B. subtilis = assay: Inhibition of bacterial growth on agar plates (MIC); assay type: cell-based; details: Bacillus subtilis, 37° C., 24 hours
# Protocol: (§1) Each compound is assayed against a panel of Bacillus, Enterococcus and Staphylococcus, and a Gram-negative bacterium Escherichia coli as negative control, grown in appropriate plate media solidified with 1.3% agar-agar. Stock solutions of the compounds in dimethylsulfoxide or water, depending on solubility, are added to sterile medium at a temperature of 60° C. […] One tenth mL of diluted bacteria containing 500-1000 colony-forming units (CFU) are plated and spread, and the plates incubated at 37° C. for 24 hours. MIC (minimum inhibitory concentration) is equivalent to the lowest concentration at which growth, i.e. colony formation, is not observed.
# E. fecalis = assay: as above; assay type: cell-based; details: 37° C., 24 hours
# Protocol: as §1
# E. fecium = assay: as above; assay type: cell-based; details: 37° C., 24 hours
# Protocol: as §1
# S.aureus (Smith) = assay: as above; assay type: cell-based; details: Staphylococcus aureus, 37° C., 24 hours
# Protocol: as §1
# [1] = truncated assay, apparent inhibitor constant, read-out: K1 B.subtilis pol IIIC
# B.subtilis pol IIIC, sequence (P13267 whole entry): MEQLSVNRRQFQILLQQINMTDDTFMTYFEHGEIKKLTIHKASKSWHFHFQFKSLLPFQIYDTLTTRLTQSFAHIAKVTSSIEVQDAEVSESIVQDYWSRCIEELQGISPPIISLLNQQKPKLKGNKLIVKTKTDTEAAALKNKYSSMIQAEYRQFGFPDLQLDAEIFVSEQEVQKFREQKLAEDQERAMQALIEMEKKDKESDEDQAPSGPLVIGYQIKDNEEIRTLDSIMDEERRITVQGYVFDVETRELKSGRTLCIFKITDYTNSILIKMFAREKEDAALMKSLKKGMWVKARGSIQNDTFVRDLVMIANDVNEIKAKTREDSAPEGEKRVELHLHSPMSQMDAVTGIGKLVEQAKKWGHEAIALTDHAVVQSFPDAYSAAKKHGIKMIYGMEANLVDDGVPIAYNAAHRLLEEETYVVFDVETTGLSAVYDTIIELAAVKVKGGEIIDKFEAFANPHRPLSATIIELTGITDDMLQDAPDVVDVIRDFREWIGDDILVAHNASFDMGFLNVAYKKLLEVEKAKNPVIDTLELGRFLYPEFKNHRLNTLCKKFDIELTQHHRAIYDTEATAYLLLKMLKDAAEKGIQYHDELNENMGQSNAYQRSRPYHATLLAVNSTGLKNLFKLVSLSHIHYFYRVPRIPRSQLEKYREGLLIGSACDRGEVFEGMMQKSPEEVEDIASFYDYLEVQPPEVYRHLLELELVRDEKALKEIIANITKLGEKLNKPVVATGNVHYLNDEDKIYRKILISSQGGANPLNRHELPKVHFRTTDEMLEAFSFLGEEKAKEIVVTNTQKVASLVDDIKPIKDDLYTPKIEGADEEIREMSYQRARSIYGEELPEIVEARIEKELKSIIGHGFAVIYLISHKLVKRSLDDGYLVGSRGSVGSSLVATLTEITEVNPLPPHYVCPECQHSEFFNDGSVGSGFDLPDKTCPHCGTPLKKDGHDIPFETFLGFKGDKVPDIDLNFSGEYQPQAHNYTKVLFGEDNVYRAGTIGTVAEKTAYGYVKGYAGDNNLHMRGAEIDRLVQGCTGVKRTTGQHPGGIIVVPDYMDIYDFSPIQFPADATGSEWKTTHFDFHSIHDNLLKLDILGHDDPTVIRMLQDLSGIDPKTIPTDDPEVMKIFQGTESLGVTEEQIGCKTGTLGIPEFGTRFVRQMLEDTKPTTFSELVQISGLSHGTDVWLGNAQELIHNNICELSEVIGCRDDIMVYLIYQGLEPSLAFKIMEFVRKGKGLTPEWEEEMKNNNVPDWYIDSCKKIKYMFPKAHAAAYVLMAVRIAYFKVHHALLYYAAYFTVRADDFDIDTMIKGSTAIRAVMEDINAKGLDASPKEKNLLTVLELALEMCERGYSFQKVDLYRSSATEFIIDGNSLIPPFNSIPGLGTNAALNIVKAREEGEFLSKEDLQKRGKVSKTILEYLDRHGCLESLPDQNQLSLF
SMILES,Ki (B.subtilis pol IIIC; [1]),MIC (B. subtilis),MIC (E. fecalis),MIC (E. fecium),MIC (S.aureus (Smith)),Ki (B.subtilis pol IIIC)
"CCc1cc(Nc2cc(=O)n(CCCCN3CCC(O)(c4ccc(Cl)cc4)CC3)c(=O)[nH]2)ccc1C [Compound 38, 3{[4-(4-Chlorophenyl)-4-hydroxypiperidino]butyl}-6-(3-ethyl-4-methylanilino)uracil]",25 nM,5 µg/mL,5 µg/mL,5 µg/mL,5 µg/mL,
"CCc1cc(Nc2cc(=O)n(CCCC(O)CO)c(=O)[nH]2)ccc1C (centres unmarked) [Compound 23, 3-(4,5-Dihydroxypentyl)-6-(3-ethyl-4-methylanilino)uracil]",,10 µg/mL,20 µg/mL,20 µg/mL,20 µg/mL,96 nM
"CCOC(=O)CCCn1c(=O)cc(Nc2ccc(C)c(CC)c2)[nH]c1=O [Compound 10, 3-[3-(Ethoxycarbonyl)propyl]-6-(3-ethyl-4-methylanilino)uracil]",,< 1.25 µg/mL,5 µg/mL,2.5 µg/mL,2.5 µg/mL,100 nM
"CCc1cc(Nc2cc(=O)n(CC#CCO)c(=O)[nH]2)ccc1C [Compound 13, 3-(4-Hydoxy-2-butynyl)-6-(3-ethyl-4-methylanilino)uracil]",,5 µg/mL,10 µg/mL,10 µg/mL,5 µg/mL,68 nM
"CCc1cc(Nc2cc(=O)n(CCCCCCO)c(=O)[nH]2)ccc1C [Compound 27, 3-(6-Hydroxyhexyl)-6-(3-ethyl-4-methylanilino)uracil]",,< 1.25 µg/mL,2.5 µg/mL,5 µg/mL,2.5 µg/mL,49 nM
"CCc1cc(Nc2cc(=O)n(CC(=O)N(CC)CC)c(=O)[nH]2)ccc1C [Compound 11, 3-[(N,N-Diethylaminocarbonyl)methyl]-6-(3-ethyl-4-methylanilino)uracil]",,2.5 µg/mL,20 µg/mL,20 µg/mL,10 µg/mL,450 nM
"CCc1cc(Nc2cc(=O)n(C/C=C/CO)c(=O)[nH]2)ccc1C [Compound 32, 3-(4-Hydroxy-2-butenyl)-6-(3-ethyl-4-methylanilino)uracil]",,1.25 µg/mL,5 µg/mL,2.5 µg/mL,5 µg/mL,51 nM
CCc1cc(Nc2cc(=O)n(CCCCN3CC=C(c4ccc(F)c(C)c4)CC3)c(=O)[nH]2)ccc1C [Compound 82],,10 µg/mL,20 µg/mL,20 µg/mL,20 µg/mL,29 nM
"CCc1cc(Nc2cc(=O)n(CCCCOC(C)=O)c(=O)[nH]2)ccc1C [Compound 22, 3-(4-Acetoxybutyl)-6-(3-ethyl-4-methylanilino)uracil]",,1.25 µg/mL,5 µg/mL,5 µg/mL,2.5 µg/mL,58 nM
"CCc1cc(Nc2cc(=O)n(CCCCN3CCN(c4nc(C)cc(C(=O)OC)n4)CC3)c(=O)[nH]2)ccc1C [Compound 61, 3-{4-[4-(6-methyl-4-methoxycarbonyl-2-pyrimidinyl)-1-piperazinyl]butyl}-6-(3-ethyl-4-methylanilino)uracil]",,10 µg/mL,20 µg/mL,20 µg/mL,40 µg/mL,66 nM
"CCc1cc(Nc2cc(=O)n(CCCCN3CC=C(c4ccc5c(c4)OCO5)CC3)c(=O)[nH]2)ccc1C [Compound 80, 3-{4-[4-(3,4-dioxomethylenephenyl-1,2,3,6-tetrahydropyridinyl)]butyl}-6-(3-ethyl-4-methylanilino)uracil]",,2.5 µg/mL,5 µg/mL,5 µg/mL,10 µg/mL,24 nM
"CCc1cc(Nc2cc(=O)n(CCCCN3CCN(c4ncc(C(=O)O)c(C(F)(F)F)n4)CC3)c(=O)[nH]2)ccc1C [Compound 65, 3-{4-[4-(4-trifluoromethyl-5-carboxy-2-pyrimidinyl)-1-piperazinyl]butyl}-6-(3-ethyl-4-methylanilino)uracil]",,80 µg/mL,80 µg/mL,40 µg/mL,80 µg/mL,113 nM
"CCc1cc(Nc2cc(=O)n(CCNS(C)(=O)=O)c(=O)[nH]2)ccc1C [Compound 16, 3-[2-(Methanesulfonylamino)ethyl]-6-(3-ethyl-4-methylanilino)uracil]",,5 µg/mL,20 µg/mL,10 µg/mL,10 µg/mL,290 nM
"CCc1cc(Nc2cc(=O)n(CCCCCNC(=O)c3cccs3)c(=O)[nH]2)ccc1C [Compound 70, 3-[5-(2-thiophenecarboxamido)pentyl]-6-(3-ethyl-4-methylanilino)uracil]",,1.25 µg/mL,5 µg/mL,5 µg/mL,10 µg/mL,65 nM
"CCc1cc(Nc2cc(=O)n(CCCCCNc3ncc(C#N)c(N)n3)c(=O)[nH]2)ccc1C [Compound 66, 3-{5-[(4-amino-5-cyano-2-pyrimidinyl)amino]pentyl}-6-(3-ethyl-4-methylanilino)uracil]",,80 µg/mL,80 µg/mL,80 µg/mL,80 µg/mL,39500 nM
"CCc1cc(Nc2cc(=O)n(CCCCN3CCN(c4ccc(C(F)(F)F)cc4[N+](=O)[O-])CC3)c(=O)[nH]2)ccc1C [Compound 64, 3-{4-[4-(2-nitro-4-trifluoromethylphenyl)-1-piperazinyl]butyl}-6-(3-ethyl-4-methylanilino)uracil]",,80 µg/mL,80 µg/mL,80 µg/mL,80 µg/mL,58800 nM
"CCc1cc(Nc2cc(=O)n(CCCCCNC[C@@H]3CCN(C(=O)OC(C)(C)C)C3)c(=O)[nH]2)ccc1C [Compound 79, 3(S)-{5-[(N-tert-butoxycarbonylpyrrolidin-3-yl)methylamino]pentyl}-6-(3-ethyl-4-methylanilino)uracil]",,20 µg/mL,40 µg/mL,40 µg/mL,20 µg/mL,120 nM
"CCc1cc(Nc2cc(=O)n(CCCCN3CCC(O)(c4ccc(Cl)c(C(F)(F)F)c4)CC3)c(=O)[nH]2)ccc1C [Compound 37, 3{[4-(3-Trifluoromethylphenyl-4-chloro-)-4-hydroxypiperidino]butyl}-6-(3-ethyl-4-methylanilino)uracil]",32 nM,1.25 µg/mL,2.5 µg/mL,2.5 µg/mL,2.5 µg/mL,
"CCc1cc(Nc2cc(=O)n(CCCCCN3CC=C(c4cccs4)CC3)c(=O)[nH]2)ccc1C [Compound 72, 3-{5-[1-(4-(thiophen-2-yl)-1,2,3,6-tetrahydropyridinyl)]pentyl}-6-(3-ethyl-4-methylanilino)uracil]",,5 µg/mL,20 µg/mL,40 µg/mL,20 µg/mL,77 nM
CCc1cc(Nc2cc(=O)n(CCCCN3CC=C(c4ccc(C)c(C)c4)CC3)c(=O)[nH]2)ccc1C [Compound 81],,1.25 µg/mL,10 µg/mL,10 µg/mL,20 µg/mL,34 nM
"CCc1cc(Nc2cc(=O)n(CC(C)=O)c(=O)[nH]2)ccc1C [Compound 15, 3-(2-Oxopropyl)-6-(3-ethyl-4-methylanilino)uracil]",,2.5 µg/mL,20 µg/mL,10 µg/mL,10 µg/mL,303 nM
"CCc1cc(Nc2cc(=O)n(CCCCN3CCN(c4ncccn4)CC3)c(=O)[nH]2)ccc1C [Compound 45, 3-{4-[4-(2-pyrimidinyl)piperazinyl]butyl}-6-(3-ethyl-4-methyylanilino)uracil]",43 nM,2.5 µg/mL,5 µg/mL,5 µg/mL,10 µg/mL,
"CCc1cc(Nc2cc(=O)n(CCCCCN3CCc4c([nH]c5ccc(OC)cc45)C3C(=O)O)c(=O)[nH]2)ccc1C (stereo not drawn) [Compound 68, 3-[5-(1-carboxy-6-methoxy-2,3,4,9-tetrahydro-1H-β-carboline-2-yl)pentyl]-6-(3-ethyl-4-methylanilino)uracil]",,20 µg/mL,80 µg/mL,80 µg/mL,40 µg/mL,288 nM
"CCc1cc(Nc2cc(=O)n(CCCC#N)c(=O)[nH]2)ccc1C [Compound 19, 3-(3-Cyanopropyl)-6-(3-ethyl-4-methylanilino)uracil]",,2.5 µg/mL,5 µg/mL,5 µg/mL,2.5 µg/mL,140 nM
CCc1cc(Nc2cc(=O)n(CCCCCN3CC=C(c4ccc(F)cc4)CC3)c(=O)[nH]2)ccc1C [Compound 75],,5 µg/mL,5 µg/mL,5 µg/mL,5 µg/mL,98 nM
